Test results as given in US20100298234A1, “Cancer therapeutic agents comprising a ligand for the neuromedin u receptor 2 (fm4) molecule as an active ingredient” (priority 2006, published 2010).

Assays:
FM4 [1] = target: T1, FM4 (Homo sapiens, UniProt Q9GZQ4, A395T/C204F); experiment: Intracellular Ca2+ concentration measurement (Fluo 4 AM) in FM4-expressing CHO cells; assay type: cell-based; conditions: FM4-CHO cell line, 2.5 μM NmU, FIG. 3
T1 construct: using Pyrobest Taq polymerase (Takara) to clone the full-length FM4 gene; expressed in transfected cells
T1 sequence (Q9GZQ4 whole entry C204F/A395T): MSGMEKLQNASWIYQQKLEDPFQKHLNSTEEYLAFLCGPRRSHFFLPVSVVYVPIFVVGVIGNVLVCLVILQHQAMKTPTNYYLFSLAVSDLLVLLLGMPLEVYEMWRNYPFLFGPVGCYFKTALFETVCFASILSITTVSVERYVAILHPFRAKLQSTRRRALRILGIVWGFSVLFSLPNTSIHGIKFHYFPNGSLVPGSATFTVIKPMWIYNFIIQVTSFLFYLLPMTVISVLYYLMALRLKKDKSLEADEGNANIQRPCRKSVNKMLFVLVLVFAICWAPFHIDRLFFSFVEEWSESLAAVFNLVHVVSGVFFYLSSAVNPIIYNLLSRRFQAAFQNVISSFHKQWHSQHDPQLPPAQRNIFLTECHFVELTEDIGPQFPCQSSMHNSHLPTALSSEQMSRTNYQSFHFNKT
Experimental: 15 μg of linearized FM4 expression vector (pMCN-FM4) obtained by digestion with PvuI was introduced into CHO cells by electroporation (Gene Pulser; BioRad) at 1.5 kV, 25 μFD. The cells were cultured in a medium containing 500 μg/mL of G418, and G418-resistant cells were picked. NmU was added to these cells, and cell lines that reacted to NmU were selected using the increase in intracellular Ca^2+ concentration as an index.
(§1) The cells were detached using trypsin, plated onto a 96-well plate (black plate for fluorescence measurement) at 2×10^4 cells/well, and after culturing overnight, they were used for intracellular calcium measurements. Measurement of the intracellular calcium concentration was performed as follows.
After removing the medium, an Fluo 4 AM solution [2% FCS, 3 μM Fluo 4 AM (Molecular PROBES) in assay buffer (2 mM HEPES, 1.5 mM probenecid in HBSS)] was added at 50 μL/well. After incubation in the dark at 37° C. for 30 minutes, the cells were washed three times in the assay buffer. Then, an assay buffer that contains 2.5 μM of NmU (Funakoshi) was added, and the intracellular Ca^2+-dependent fluorescence trace at 490-nm excitation was monitored on a plate reader for fluorimetric analysis (Fusion; Perkin Elmer).

FM4 [2] = target: T1, FM4; experiment: Intracellular Ca2+ concentration in FM4-expressing PANC1 cells (FM4-PANC1); assay type: cell-based; conditions: FM4-PANC1, NmU 1 μM, FIG. 6
Experimental: as §1
After removing the medium, an Fluo 4 AM solution [2% FCS, 3 μM Fluo 4 AM (Molecular PROBES) in assay buffer (2 mM HEPES, 1.5 mM probenecid in HBSS)] was added at 50 μL/well. After incubation in the dark at 37° C. for 30 minutes, the cells were washed three times in the assay buffer. […]
In order to confirm that the NmU signaling is transmitted into the cell in the obtained FM4-expressing PANC1 cells (FM4-PANC1), whether the addition of NmU increased the intracellular Ca^2+ concentration was analyzed. […] This confirmed that in the established FM4-PANC1 cells, NmU stimulation causes the FM4-mediated signaling to be transmitted into the cell.

FM4-CHO cells [3] = experiment: Proliferation-suppressing effect, WST-8 assay, FM4-CHO; assay type: cell-based, Chinese hamster; conditions: NmU 0.096 μM to 60 μM, 48 hours, FIG. 4A
Experimental: FM4-CHO cells were plated onto a 96-well plate at 2×10^3 cells/well. On the following day, NmU was added to each well at various concentrations (0.096 μM to 60 μM) and the cells were cultured. 48 Hours later, the number of viable cells were analyzed by WST-8 assay (Cell counting kit-8, Dojindo Laboratories).

PANC-1 = experiment: Proliferation of pancreatic cancer cell line PANC-1; assay type: cell-based, human; conditions: PANC-1, NmU 0.096 μM to 60 μM, 72 hours, FIG. 4B
Experimental: (§2) On the following day, NmU was added to each well at 0.096 μM to 60 μM. Seventy-two hours later, the number of cells was determined.

Capan-1 = experiment: Proliferation of pancreatic cancer cell line Capan-1; assay type: cell-based, human; conditions: Capan-1 (high FM4 gene expression), NmU 0.096 μM to 60 μM, 72 hours, FIG. 4B
Experimental: as §2

PANC1 cells = experiment: Soft agar colony formation assay, parent PANC1 cells; assay type: cell-based, human; conditions: parent cell line PANC1 that does not express FM4, NmU 1 μM, one month, FIG. 7
Experimental: (§3) To analyze the effect of NmU on the ability of this cell to form colonies, soft agar colony formation assay was performed. Soft agar colony formation assay was performed as follows.
(§4) Base agar (0.5% agar, 1×MEM, and 10% FCS) was added to each well of a 6-well plate at 1.5 mL/well, and then 1.5 mL/well (0.5×10^4 cells/well) of PANC1 cells or FM4-PANC1 cells in the presence or absence of NmU (1 μM) in top agar (0.35% agar, 1×MEM, and 10% FCS) was added at to each of the wells. After culturing for one month, the number of colony forming cells in the soft agar was counted under a microscope.

FM4-PANC1 cells = experiment: Soft agar colony formation assay, FM4-PANC1 cells; assay type: cell-based, human; conditions: FM4-PANC1, NmU 1 μM, one month, FIG. 7
Experimental: as §3, §4

FM4-CHO cells [4] = experiment: Cell morphology of FM4-CHO cells under a microscope after NmU stimulation; assay type: cell-based, Chinese hamster; conditions: FM4-CHO stimulated with NmU, in approximately 12 hours, FIG. 8
Description: The cell morphology of FM4-CHO cells which were forced to express FM4 was observed under a microscope.
This led to the speculation that NmU is involved in signal transduction that regulates cell adhesion and cell movement.

CHO cells = experiment: Wound healing assay (cell movement), parent CHO cells; assay type: cell-based, Chinese hamster; conditions: NmU 5 μM, serum-free medium, 24 hours, FIG. 9
Experimental: (§5) Next, the effect of NmU on cell movement ability was analyzed by wound healing assay. Parent cell line CHO cells and FM4-CHO cells were grown to confluency in plates, and wounded with a pipette tip to make a fixed clearance between the cells. After washing the cells twice with PBS, the cells were cultured in a serum-free culture medium in the presence or absence of NmU (5 μM). Twenty-four hours later, cells that moved into the clearance between the cells were observed and photographed under a microscope.

FM4-CHO cells [5] = experiment: Wound healing assay (cell movement), FM4-CHO cells; assay type: cell-based, Chinese hamster; conditions: NmU 5 μM, serum-free medium, 24 hours, FIG. 9
Experimental: as §5

FM3 = conditions: CHO, HEK-293 and COS-7 cells forced to express FM3; cited from earlier work
FM4 [6] = target: T2, FM4 (Homo sapiens, UniProt Q9GZQ4); conditions: CHO, HEK-293 and COS-7 cells forced to express FM4; cited from earlier work
T2 construct: host or cells: CHO, HEK-293 and COS-7 cells with forced expression
T2 sequence (Q9GZQ4 whole entry): as the sequence (Q9GZQ4 whole entry C204F/A395T) above, with F204C, T395A counted along it

[7] = administration into the cerebral ventricle; cited from earlier work

NmU: biologically active peptide, endogenous ligand for FM3 and FM4; polypeptide of SEQ ID NO: 14; NmU (Funakoshi) used in the tests (FRVDEEFQSPFASQSRGYFLFRPRN; listed as Homo sapiens)
intracellular Ca2+ concentration (FM4 [1]): quickly increased
intracellular Ca2+ concentration (FM4 [2]): increase of the intracellular Ca^2+ concentration
proliferation (number of viable cells, WST-8) (FM4-CHO cells [3]): suppressed proliferation of FM4-CHO at low concentration
proliferation (number of cells) (PANC-1): did not act at all on the proliferation
proliferation (number of cells) (Capan-1): proliferation-suppressing effect of NmU was observed
colony forming ability in soft agar (PANC1 cells): did not have any effect
colony forming ability in soft agar (FM4-PANC1 cells): colony formation-suppressing effect by NmU was confirmed
cell morphology (FM4-CHO cells [4]): significant morphological alterations of the cells such as disappearance of cell protrusions
cell movement (CHO cells): did not have any effect
cell movement (FM4-CHO cells [5]): completely inhibited
intracellular calcium ion concentration (FM3): induced increase of intracellular calcium ion concentration at the nanomolar level
intracellular calcium ion concentration (FM4 [6]): induced increase of intracellular calcium ion concentration at the nanomolar level
food/feed intake [7]: significant reduction in overnight food intake and starvation-induced feeding
